Test results: ChEMBL document CHEMBL5506074, “Discovery and Optimization of Tetrahydroisoquinoline Derivatives To Enhance Lysosome Biogenesis as Preclinical Candidates for the Treatment of Alzheimer's Disease” (J Med Chem, 2024)
The source made the active and inactive calls. The calls are words filed in the database; no cut-off is given here.

Columns and labels:
HeLa [1] = experiment: Upregulation of p62 mRNA expression in TFEB knockout human HeLa cells at 10 uM incubated for 24 hrs by qRT-PCR analysis; type: functional, cell-based
[2] = AUC (0 to t) in ICR mouse at 10 mg/kg, ip measured upto 24 hrs by LC-MS/MS analysis; type: ADME, organism-based; settings: in vivo
Mus musculus [3] = experiment: Anti-alzheimer activity against APP/PS1 mouse model assessed as upregulation of p62 mRNA expression in brain at 10 mg/kg, ip administered for 30 days; type: functional, organism-based; settings: time 30.0 day
HeLa [4] = experiment: Upregulation of p62 mRNA expression in human HeLa cells at 10 uM incubated for 24 hrs by qRT-PCR analysis; type: functional, cell-based
Mus musculus [5] = experiment: Anti-alzheimer activity against APP/PS1 mouse model assessed as reduction in amyloid beta plaque in cortex at 10 mg/kg, ip administered for 30 days; type: functional; design: scale not given: the % may be the effect or the level left; settings: time 30 day
HeLa [6] = experiment: Upregulation of Atg16L1 mRNA expression in TFEB knockout human HeLa cells at 10 uM incubated for 24 hrs by qRT-PCR analysis; type: functional, cell-based
[7] = Ratio of drug concentration in ICR mouse brain to plasma at 10 mg/kg, ip measured upto 24 hrs by LC-MS/MS analysis; type: ADME, organism-based; settings: brain and plasma, read-out: BPR
HeLa [8] = experiment: Upregulation of ATG2A mRNA expression in human HeLa cells at 10 uM incubated for 24 hrs by qRT-PCR analysis; type: functional, cell-based
HeLa [9] = experiment: Upregulation of CTSF mRNA expression in human HeLa cells at 10 uM incubated for 24 hrs by qRT-PCR analysis; type: functional, cell-based
Mus musculus [10] = experiment: Anti-alzheimer activity against APP/PS1 mouse model assessed as reduction in amyloid beta 42 plaque in hippocampus at 10 mg/kg, ip administered for 30 days; type: functional; design: scale not given: the % may be the effect or the level left; settings: time 30 day
HeLa [11] = experiment: Upregulation of OPTN mRNA expression in human HeLa cells at 10 uM incubated for 24 hrs by qRT-PCR analysis; type: functional, cell-based
Mus musculus [12] = experiment: Anti-alzheimer activity against APP/PS1 mouse model assessed as upregulation of WIPL1 mRNA expression in brain at 10 mg/kg, ip administered for 30 days; type: functional, organism-based; settings: time 30.0 day
Mus musculus [13] = experiment: Anti-alzheimer activity against APP/PS1 mouse model assessed as reduction in amyloid beta plaque in hippocampus at 10 mg/kg, ip administered for 30 days; type: functional; design: scale not given: the % may be the effect or the level left; settings: time 30 day
[14] = Toxicity in APP/PS1 mouse model assessed as change in body weight at 10 mg/kg, ip administered every other day for 30 days; type: organism-based; settings: in vivo, 720 h, time 30 day
[15] = AUC (0 to t) in ICR mouse at 20 mg/kg, po measured upto 24 hrs by LC-MS/MS analysis; type: ADME, organism-based; settings: in vivo
[16] = Half life in ICR mouse at 10 mg/kg, ip measured upto 24 hrs by LC-MS/MS analysis; type: ADME, organism-based; settings: in vivo
HeLa [17] = experiment: Upregulation of LC3B mRNA expression in TFEB knockout human HeLa cells at 10 uM incubated for 24 hrs by qRT-PCR analysis; type: functional, cell-based
HeLa [18] = experiment: Upregulation of GLA mRNA expression in TFEB knockout human HeLa cells at 10 uM incubated for 24 hrs by qRT-PCR analysis; type: functional, cell-based
Mus musculus [19] = experiment: Anti-alzheimer activity against APP/PS1 mouse model assessed as upregulation of LAMP1 mRNA expression in brain at 10 mg/kg, ip administered for 30 days; type: functional, organism-based; settings: time 30.0 day
Mus musculus [20] = experiment: Anti-alzheimer activity against APP/PS1 mouse model assessed as increase in time spent in the target quadrant at 10 mg/kg, ip administered for 30 days by Morris water maze test; type: functional, organism-based; settings: time 30.0 day
[21] = Acute toxicity in C57BL/6J mouse assessed as change in body weight at 50 mg/kg, ip measured upto 14 days; type: organism-based; settings: in vivo, 336 h, time < 14 day
Mus musculus [22] = experiment: Anti-alzheimer activity against APP/PS1 mouse model assessed as reduction in time to locate hidden platform at 10 mg/kg, ip administered for 30 days by Morris water maze test; type: functional, organism-based; settings: time 30.0 day
HeLa [23] = experiment: Upregulation of HEXA mRNA expression in TFEB knockout human HeLa cells at 10 uM incubated for 24 hrs by qRT-PCR analysis; type: functional, cell-based
[24] = test system: Primary neocortical neuron; experiment: Cytotoxicity against mouse Primary neocortical neuron cells assessed as effect on cell viability at 10 uM incubated for 24 hrs; type: functional, cell-based
Mus musculus [25] = experiment: Anti-alzheimer activity against APP/PS1 mouse model assessed as reduction in amyloid beta 42 plaque in cortex at 10 mg/kg, ip administered for 30 days; type: functional; design: scale not given: the % may be the effect or the level left; settings: time 30 day
HeLa [26] = experiment: Upregulation of […] mRNA expression in TFEB knockout human HeLa cells at 10 uM incubated for 24 hrs by qRT-PCR analysis; type: functional, cell-based
[27] = Acute toxicity in C57BL/6J mouse assessed as brain damage at 50 mg/kg, ip measured upto 14 days by H and E staining based analysis; type: organism-based; settings: in vivo, 336 h, time < 14 day
[28] = Bioavailability in ICR mouse at 5 mg/kg, ip measured upto 24 hrs by LC-MS/MS analysis; type: ADME, organism-based; settings: in vivo
HeLa [29] = experiment: Induction of cell cycle arrest in human HeLa cells assessed as effect on LAMP1 level at 10 uM incubated for 12 hrs by qRT-PCR analysis; type: functional, cell-based
HeLa [30] = experiment: Upregulation of CTSD mRNA expression in TFEB knockout human HeLa cells at 10 uM incubated for 24 hrs by qRT-PCR analysis; type: functional, cell-based
HeLa [31] = experiment: Upregulation of LAMP1 mRNA expression in human HeLa cells at 10 uM incubated for 24 hrs by qRT-PCR analysis; type: functional, cell-based
[32] = Induction of TFEB nuclear translocation in human HeLa cells expressing EGFP at 10 uM measured at 6 hrs by fluorescence microscopic analysis; type: functional
[33] = Acute toxicity in C57BL/6J mouse assessed as heart damage at 50 mg/kg, ip measured upto 14 days H and E staining based analysis; type: organism-based; settings: in vivo, 336 h, time < 14 day
HeLa [34] = experiment: Induction of cell cycle arrest in human HeLa cells assessed as effect on p21 level at 10 uM incubated for 12 hrs by qRT-PCR analysis; type: functional, cell-based
HeLa [35] = experiment: Induction of cell cycle arrest in human HeLa cells assessed as effect on CDK7 level at 10 uM incubated for 12 hrs by qRT-PCR analysis; type: functional, cell-based
Mus musculus [36] = experiment: Anti-alzheimer activity against APP/PS1 mouse model assessed as upregulation of ATG16L1 mRNA expression in brain at 10 mg/kg, ip administered for 30 days; type: functional, organism-based; settings: time 30.0 day
HeLa [37] = experiment: Upregulation of UVRAG mRNA expression in TFEB knockout human HeLa cells at 10 uM incubated for 24 hrs by qRT-PCR analysis; type: functional, cell-based
[38] = Cmax in ICR mouse at 10 mg/kg, ip measured upto 24 hrs by LC-MS/MS analysis; type: ADME, organism-based; settings: in vivo
[39] = Induction of TFEB nuclear translocation in human HeLa cells expressing EGFP at 30 uM measured at 6 hrs by fluorescence microscopic analysis; type: functional
HeLa [40] = experiment: Upregulation of CTSD mRNA expression in human HeLa cells at 10 uM incubated for 24 hrs by qRT-PCR analysis; type: functional, cell-based

Compound | Activity (HeLa [1]) | AUC(0-t) at 24 h [2] | Activity (Mus musculus [3]) | Activity (HeLa [4]) | Activity (Mus musculus [5]) | Activity (HeLa [6]) | Kp at 24 h [7] | Activity (HeLa [8]) | Activity (HeLa [9]) | Activity (Mus musculus [10]) | Activity (HeLa [11]) | Activity (Mus musculus [12]) | Activity (Mus musculus [13]) | Activity [14] | half-life [16] | Activity (HeLa [17]) | Activity (HeLa [18]) | Activity (Mus musculus [19]) | Activity (Mus musculus [20]) | Activity [21] | also measured
c1ccc2c(CCC3NCCc4cc5c(cc43)OCO5)c[nH]c2c1 (stereo not given) | Active | 7640 ng·h/mL | Active | Active | 26.5% | Active | 1.1 | Active | Active | 43.6% | Active | Active | 67.5% | Non-Toxic | 2.05 h | Active | Active | Active | Active | Non-Toxic | AUC(0-t) at 24 h ([15]; ICR): 17100 ng·h/mL; Activity (Mus musculus [22]): Active; Activity (HeLa [23]): Active; Activity [24]: Active; Activity (Mus musculus [25]): 47%; Activity (HeLa [26]): Active; Activity [27]: Non-Toxic; bioavailability [28]: 115%; Activity (HeLa [29]): inactive; Activity (HeLa [30]): Active; Activity (HeLa [31]): Active; Activity [32]: 51%; Activity [33]: Non-Toxic; Activity (HeLa [34]): inactive; Activity (HeLa [35]): inactive; Activity (Mus musculus [36]): Active; Activity (HeLa [37]): Active; Cmax [38]: 4720 ng/mL; Activity [39]: 98%; Activity (HeLa [40]): Active
Fc1ccc2[nH]cc(CCC3c4cc5c(cc4CCN3CC3CCOCC3)OCO5)c2c1 (stereo not given) | Active | 210 ng·h/mL | Active | Active | 29.5% | Active | 5.2 | Active | Active | 25.4% | Active | Active | 69.8% | Non-Toxic | 1.17 h | Active | Active | Active | Active | Non-Toxic | AUCt ([15]; po, 20 mg/kg, 24 h): 17.4 ng·h/mL; Activity (Mus musculus [22]): Active; Activity (HeLa [23]): Active; Activity [24]: Active; Activity (Mus musculus [25]): 36.3%; Activity (HeLa [26]): Active; Activity [27]: Non-Toxic; bioavailability [28]: 25.7%; Activity (HeLa [29]): inactive; Activity (HeLa [30]): Active; Activity (HeLa [31]): Active; Activity [32]: 79%; Activity [33]: Non-Toxic; Activity (HeLa [34]): inactive; Activity (HeLa [35]): inactive; Activity (Mus musculus [36]): Active; Activity (HeLa [37]): Active; Cmax [38]: 146 ng/mL; Activity [39]: 98%; Activity (HeLa [40]): Active
